Test results published in US20060128737A1, “Androgen receptor agonists” (KAKEN PHARMACEUTICAL CO., LTD., priority 2003, published 2006).

Key:
[1] = target: T1, rat androgen receptors (rat AR) (Rattus norvegicus, UniProt P15207); experiment: Test for competitive binding to rat androgen receptors (rat AR); details: RBA=100×(IC50 of hydroxyflutamide)/(IC50 of compound); 3H-testosterone, rat prostate AR fraction
T1 construct: from tissue; host or cells: prostate of orchiectomized 11-week-old male SD rats (cytosolic supernatant of homogenate)
T1 sequence (P15207 1-902): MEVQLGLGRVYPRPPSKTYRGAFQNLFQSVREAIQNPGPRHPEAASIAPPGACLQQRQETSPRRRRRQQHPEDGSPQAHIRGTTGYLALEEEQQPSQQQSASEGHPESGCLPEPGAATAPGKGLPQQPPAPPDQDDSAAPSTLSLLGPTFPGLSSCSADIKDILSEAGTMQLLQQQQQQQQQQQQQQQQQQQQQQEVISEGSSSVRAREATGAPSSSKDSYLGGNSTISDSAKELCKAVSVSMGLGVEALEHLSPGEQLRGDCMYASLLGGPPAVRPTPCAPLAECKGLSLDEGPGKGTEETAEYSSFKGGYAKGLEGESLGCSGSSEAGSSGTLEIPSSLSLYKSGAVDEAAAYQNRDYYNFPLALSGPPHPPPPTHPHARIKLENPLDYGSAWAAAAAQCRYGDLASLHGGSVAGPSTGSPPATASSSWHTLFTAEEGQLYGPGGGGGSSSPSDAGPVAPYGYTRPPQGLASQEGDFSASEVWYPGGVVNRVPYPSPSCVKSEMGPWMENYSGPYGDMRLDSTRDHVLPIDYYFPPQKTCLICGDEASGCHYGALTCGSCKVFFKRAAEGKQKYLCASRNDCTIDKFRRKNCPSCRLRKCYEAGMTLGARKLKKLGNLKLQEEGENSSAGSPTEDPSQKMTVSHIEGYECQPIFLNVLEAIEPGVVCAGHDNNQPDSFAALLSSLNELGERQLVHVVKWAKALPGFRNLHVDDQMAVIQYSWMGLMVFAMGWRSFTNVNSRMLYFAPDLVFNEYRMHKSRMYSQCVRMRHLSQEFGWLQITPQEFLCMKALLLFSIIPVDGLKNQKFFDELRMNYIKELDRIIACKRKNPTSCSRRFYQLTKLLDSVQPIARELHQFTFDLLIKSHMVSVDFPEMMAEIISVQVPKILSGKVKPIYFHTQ
Procedure: Preparation of a rat AR fraction: Prostates were harvested into ice-cooled ET buffer (10 mM Tris, 1 mM EDTA, 5 mM DTT, 10 mM sodium molybdate, pH 7.4) 3 days after orchiectomy in 11-week-old male SD rats. The prostate was finely cut, and ET buffer was added, whereafter the mixture was homogenized using a homogenizer. The homogenate was ultracentrifuged (100,000×g, 60 min, 4° C.), and the supernatant was used as a rat AR fraction (hereinafter referred to as ARF).
Binding test: ^3H-testosterone (hereinafter referred to as ^3H-T) was diluted with ET buffer. Dihydrotestosterone (DHT) was prepared so as to have a final concentration of 1 μM which was 400 times the maximum concentration of ^3H-T (2.5 nM). The ^3H-T solution was added to a 1.5 ml tube containing DHT, no DHT, or various concentrations of a test compound. Further, 200 μg ARF was added to adjust the final volume to 100 μl. The mixture was incubated for 2 hours at 4° C., and then 300 μl of a 0.05% dextran T70-1.0% activated carbon solution was added. The mixture was further incubated for 15 minutes in ice to remove the free ^3H-T by adsorption. After centrifugation (4° C., 2,500 rpm, 5 min), 275 μl of the supernatant was harvested into a liquid scintillation vial, and 2 ml of Clear Sol was added. The mixture was stirred, allowed to stand, and measured for ^3H radioactivity with a liquid scintillation counter.
Calculation of the relative binding inhibition rate: The binding inhibition rate (%) of the compound according to the present invention was calculated from the following equation, and the 50% inhibition concentration (IC50) was calculated by the probit analysis of the concentration-binding inhibition curve.
The relative binding inhibition rate (RBA: Relative Binding Affinity) was determined from the following equation (Endocrinology 138, 863-870, 1997): RBA=100×(IC50 of hydroxyflutamide)/(IC50 of a compound of the present invention)

[2] = tested on: orchiectomized (ORX) rats; experiment: Test Example 4: effect on prostate, levator ani muscle and femoral bone mineral density in ORX rats (subcutaneous); type: in vivo, rat; details: for Prostate weight as % of the level of the sham control group: 30 mg/kg sc; for Femoral bone mineral density / Weight of levator ani muscle / Weight of prostate: 30 mg/kg sc once daily, 5 days a week, 4 weeks
Procedure: Testes were removed from 12-week-old male SD rats. Starting on the next day, the compound of Example 113 or 114 (30 mg/kg) or DHT (10 mg/kg) was subcutaneously administered once daily for four consecutive weeks on a 5-day-a-week basis. The Example compounds and DHT were dissolved in dimethyl sulfoxide and diluted 10-fold with olive oil to prepare solutions with various concentrations for use in the test. In an ORX control group, dimethyl sulfoxide as diluted 10-fold with olive oil was used for the test. […] On the next day after final administration, the wet weights of the ventral prostate and levator ani muscle were measured and the right femoral bone mineral density was measured by DEXA (double energy X-ray absorption) to evaluate the in vivo efficacy of the compounds of Example 113 and 114.

[3] = tested on: orchiectomized (ORX) rats; experiment: Test Example 3: effect on prostate, levator ani muscle and femoral bone mineral density in ORX rats (subcutaneous); type: in vivo, rat
Procedure: (§1) Testes were removed from 12-week-old male SD rats. Starting on the next day, the compound of Example 12 or 65 (30 mg/kg) or DHT (0.1, 1, 10 mg/kg) was subcutaneously administered once daily for four consecutive weeks on a 5-day-a-week basis. The Example compounds and DHT were dissolved in dimethyl sulfoxide and diluted 10-fold with olive oil to prepare solutions with various concentrations for use in the test. In an ORX control group, dimethyl sulfoxide as diluted 10-fold with olive oil was used for the test. Rats which had been falsely operated on without orchiectomy were used as a sham control group. On the next day after final administration, the wet weights of the ventral prostate and levator ani muscle were measured and the right femoral bone mineral density was measured by DEXA (double energy X-ray absorption) to evaluate the in vivo efficacy of the compounds of Example 12 and 65.

[4] = tested on: orchiectomized (ORX) rats; experiment: Test Example 2: effect on prostate, levator ani muscle and femoral bone mineral density in ORX rats (subcutaneous); type: in vivo, rat; details: for Femoral bone mineral density / Weight of levator ani muscle / Weight of prostate: 5 days a week, 4 weeks
Procedure: as §1, with “1 (3, 10, 30” for “12 or 65 (30”, “compound” for “compounds”, “1.” for “12 and 65.”

[5] = tested on: orchiectomized (ORX) rats; experiment: Test Example 5: effect of oral administration on prostate, levator ani muscle and femoral bone mineral density in ORX rats; type: in vivo, rat
Procedure: Testes were removed from 12-week-old male SD rats. Starting on the next day, the compound of Example 1 (100 mg/10 ml/kg) was orally administered once daily for four consecutive weeks on a 5-day-a-week basis. As a positive control, testosterone propionate (TP) (10 mg/kg) was subcutaneously administered once daily on a continuous 5-day-a-week basis. The test compound was suspended in a 0.5% methyl cellulose solution used as a solvent whereas TP was dissolved in dimethyl sulfoxide and diluted 10-fold with olive oil for use in the test. In an ORX control group, dimethyl sulfoxide as diluted 10-fold with olive oil was used for the test. Rats which had been falsely operated on without orchiectomy were used as a sham control group. On the next day after final administration, the wet weights of the ventral prostate and levator ani muscle were measured and the right femoral bone mineral density was measured by DEXA (double energy X-ray absorption) to evaluate the in vivo efficacy of the compound of Example 1. The results are shown in Table 19 and in FIGS. 10 to 12.

[6] = 30 mg/kg sc once daily, 5 days a week, 4 weeks
[7] = 100 mg/kg PO once daily, 5 days a week, 4 weeks

## CCOc1ccc(C(=O)NCC(C)(C)[C@H]2Nc3ccc(C#N)cc3[C@H]3OCC[C@H]32)cc1 (relative stereo) [Example 114, (3aS*,4S*,9bS*)-N-[2-(8-cyano-2,3,3a,4,5,9b-hexahydro-furo[3,2-c]quinolin-4-yl)-2-methyl-propyl]-4-ethoxybenzamide]
[1]
  RBA (Relative Binding Affinity): 55
[2]
  Prostate weight as % of the level of the sham control group: about 60%
  Femoral bone mineral density: 150 ± 8 mg/cm^2
  Weight of levator ani muscle: 66 ± 11 mg/100 g body weight
  Weight of prostate: 86 ± 17 mg/100 g body weight

## CC(C)(CNC(=O)c1ccc(Br)cc1)[C@H]1Nc2ccc([N+](=O)[O-])cc2C2OCC[C@H]21 (relative stereo) [Example 12, (3aS*,4S*,9bS*)-4-bromo-N-[2-methyl-2-(8-nitro-2,3,3a,4,5,9b-hexahydro-furo[3,2-c]quinolin-4-yl)propyl]benzamide]
[1]
  RBA (Relative Binding Affinity): 94
[3]; 30 mg/kg sc
  Prostate weight as % of the level of the sham control group: about 35%
[3]; [6]
  Femoral bone mineral density: 122 ± 5 mg/cm^2
  Weight of levator ani muscle: 54 ± 5 mg/100 g body weight
  Weight of prostate: 36 ± 6 mg/100 g body weight

## CCOc1ccc(C(=O)NCC(C)(C)[C@H]2Nc3ccc([N+](=O)[O-])cc3C3OCC[C@H]32)cc1 (some centres unmarked) [Example 20]
[1]
  RBA (Relative Binding Affinity): 161

## COCC(=O)NCC(C)(C)[C@H]1Nc2ccc([N+](=O)[O-])cc2C2C=CC[C@H]21 (relative stereo) [Example 1, (3aR*,4S*,9bS*)-2-methoxy-N-[2-methyl-2-(8-nitro-3a,4,5,9b-tetrahydro-3H-cyclopenta[c]quinolin-4-yl)propyl]-1-acetamide]
[1]
  RBA (Relative Binding Affinity): 1076
[4]; 3 mg/kg sc once daily
  Femoral bone mineral density: 116 ± 6 mg/cm^2
  Weight of levator ani muscle: 56 ± 7 mg/100 g body weight
  Weight of prostate: 41 ± 8 mg/100 g body weight
[4]; 10 mg/kg sc once daily
  Femoral bone mineral density: 119 ± 3 mg/cm^2
  Weight of levator ani muscle: 65 ± 6 mg/100 g body weight
  Weight of prostate: 61 ± 10 mg/100 g body weight
[4]; 30 mg/kg sc
  Prostate weight as % of the level of the sham control group: about 80%
[4]; 30 mg/kg sc once daily
  Femoral bone mineral density: 122 ± 1 mg/cm^2
  Weight of levator ani muscle: 71 ± 4 mg/100 g body weight
  Weight of prostate: 82 ± 10 mg/100 g body weight
[5]; [7]
  Femoral bone mineral density: 135 ± 6 mg/cm^2
  Weight of levator ani muscle: 87 ± 5 mg/100 g body weight
  Weight of prostate: 117 ± 23 mg/100 g body weight
[5]; 100 mg/kg orally
  Prostate weight as % of the level of the sham control group: about 75%

## CC(C)(CNC(=O)c1ccc(OC(F)(F)F)cc1)[C@H]1Nc2ccc(C#N)cc2[C@H]2OCC[C@H]21 (relative stereo) [Example 113, (3aS*,4S*,9bS*)-N-[2-(8-cyano-2,3,3a,4,5,9b-hexahydro-furo[3,2-c]quinolin-4-yl)-2-methyl-propyl]-4-trifluoromethoxybenzamide]
[1]
  RBA (Relative Binding Affinity): 58
[2]
  Prostate weight as % of the level of the sham control group: about 40%
  Femoral bone mineral density: 148 ± 3 mg/cm^2
  Weight of levator ani muscle: 65 ± 6 mg/100 g body weight
  Weight of prostate: 59 ± 16 mg/100 g body weight

## CC(C)(O)C(=O)Nc1ccc([N+](=O)[O-])c(C(F)(F)F)c1 [Hydroxyflutamide, hydroxyflutamide, reference compound]
[1]
  RBA (Relative Binding Affinity): 100
